PubChem BioAssay AID2060605 (Molecular Pharmacology Branch, DTP, NCI, 2025)

System: 947758-054-R-J2-PDC spheroid growth, percent test/control
Assay: Anticancer human tumor 947758-054-R-J2-PDC patient-derived colon adenocarcinoma cell line growth inhibition [CLK]
Settings: spheroids with HUVEC and MSC; for IC50: curve of first compound; for viability, T/C: stronger effect = lower value; active means viability on the fitted dose curve at most 10% of control; inactive means the rest
Outline: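 Multi-cell-type spheroids combined patient-derived tumor cells with HUVEC endothelial cells and human mesenchymal stem cells. Paired agents were dosed in half-log steps down from about clinical Cmax, or from 10 microM where Cmax was unknown.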

[1] = second compound 0.0316 µM, first compound 0.0316 µM
[2] = second compound 0.0316 µM, first compound 0.1 µM
[3] = second compound 0.0316 µM, first compound 0.316 µM
[4] = second compound 0.0316 µM, first compound 1 µM
[5] = second compound 0.0316 µM, first compound 3.16 µM
[6] = second compound 0.0316 µM, first compound 10 µM
[7] = second compound 0.1 µM, first compound 0.0316 µM
[8] = second compound 0.1 µM, first compound 0.1 µM
[9] = second compound 0.1 µM, first compound 0.316 µM
[10] = second compound 0.1 µM, first compound 1 µM
[11] = second compound 0.1 µM, first compound 3.16 µM
[12] = second compound 0.1 µM, first compound 10 µM
[13] = second compound 0.316 µM, first compound 0.0316 µM
[14] = second compound 0.316 µM, first compound 0.1 µM
[15] = second compound 0.316 µM, first compound 0.316 µM
[16] = second compound 0.316 µM, first compound 1 µM
[17] = second compound 0.316 µM, first compound 3.16 µM
[18] = second compound 0.316 µM, first compound 10 µM
[19] = second compound 1 µM, first compound 0.0316 µM
[20] = second compound 1 µM, first compound 0.1 µM
[21] = second compound 1 µM, first compound 0.316 µM
[22] = second compound 1 µM, first compound 1 µM
[23] = second compound 1 µM, first compound 3.16 µM
[24] = second compound 1 µM, first compound 10 µM
[25] = second compound 3.16 µM, first compound 0.0316 µM
[26] = second compound 3.16 µM, first compound 0.1 µM
[27] = second compound 3.16 µM, first compound 0.316 µM
[28] = second compound 3.16 µM, first compound 1 µM
[29] = second compound 3.16 µM, first compound 3.16 µM
[30] = second compound 3.16 µM, first compound 10 µM
[31] = second compound 10 µM, first compound 0.0316 µM
[32] = second compound 10 µM, first compound 0.1 µM
[33] = second compound 10 µM, first compound 0.316 µM
[34] = second compound 10 µM, first compound 1 µM
[35] = second compound 10 µM, first compound 3.16 µM
[36] = second compound 10 µM, first compound 10 µM
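Further: spheroids exposed to compounds for one week before readout.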
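Wherever viability, T/C is given: 100% = DMSO vehicle control wells.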

CC(=O)O[C@H]1C(=O)[C@@]2(C)[C@H]([C@H](OC(=O)c3ccccc3)[C@]3(O)C[C@H](OC(=O)[C@H](O)[C@@H](NC(=O)c4ccccc4)c4ccccc4)C(C)=C1C3(C)C)[C@]1(OC(C)=O)CO[C@@H]1C[C@@H]2O + CN1CCN(c2cc(C(=O)Nc3cc4cc(-c5cnn(C)c5)ccc4cn3)ccn2)CC1
active: viability, T/C [1] 7.4% | viability, T/C [2] 6.03% | viability, T/C [3] 4.94% | viability, T/C [4] 5.77% | viability, T/C [5] 6.99% | viability, T/C [6] 11.8% | viability, T/C [7] 5.33% | viability, T/C [8] 5.11% | viability, T/C [9] 4.6% | viability, T/C [10] 4.61% | viability, T/C [11] 5.41% | viability, T/C [12] 8.84% | viability, T/C [13] 1.4% | viability, T/C [14] 1.86% | viability, T/C [15] 2.27% | viability, T/C [16] 1.92% | viability, T/C [17] 2.04% | viability, T/C [18] 2.67% | viability, T/C [19] 0.1% | viability, T/C [20] 0.12% | viability, T/C [21] 0.3% | viability, T/C [22] 0.08% | viability, T/C [23] 0.09% | viability, T/C [24] 0.09% | viability, T/C [25] 0.16% | viability, T/C [26] 0.22% | viability, T/C [27] 0.21% | viability, T/C [28] 0.14% | viability, T/C [29] 1.02% | viability, T/C [30] 0.58% | viability, T/C [31] 1.41% | viability, T/C [32] 0.29% | viability, T/C [33] 0.23% | viability, T/C [34] 0.25% | viability, T/C [35] 0.27% | viability, T/C [36] 0.7%
< 31.6 nM: IC50 (second compound 0.0316 µM) | IC50 (second compound 0.1 µM) | IC50 (second compound 0.316 µM) | IC50 (second compound 1 µM) | IC50 (second compound 3.16 µM) | IC50 (second compound 10 µM)

COc1ccc([C@@H](O)c2cc(-c3ncnc4cc(N5CCOCC5)ccc34)c(F)cc2Cl)nn1 + CN1CCN(c2cc(C(=O)Nc3cc4cc(-c5cnn(C)c5)ccc4cn3)ccn2)CC1
> 10000 nM: IC50 (second compound 0.0316 µM)
active: viability, T/C [13] 1.95% | viability, T/C [14] 5% | viability, T/C [15] 1.88% | viability, T/C [16] 2.42% | viability, T/C [17] 2.05% | viability, T/C [18] 1.12% | viability, T/C [19] 0.11% | viability, T/C [20] 1.62% | viability, T/C [21] 0.17% | viability, T/C [22] 0.08% | viability, T/C [23] 1.67% | viability, T/C [24] 0.46% | viability, T/C [25] 0.13% | viability, T/C [26] 1.34% | viability, T/C [27] 0.63% | viability, T/C [28] 0.14% | viability, T/C [29] 0.18% | viability, T/C [30] 0.3% | viability, T/C [31] 0.26% | viability, T/C [32] 0.42% | viability, T/C [33] 0.26% | viability, T/C [34] 0.21% | viability, T/C [35] 0.3% | viability, T/C [36] 0.88%
4240 nM: IC50 (second compound 0.1 µM)
< 31.6 nM: IC50 (second compound 0.316 µM) | IC50 (second compound 1 µM) | IC50 (second compound 3.16 µM) | IC50 (second compound 10 µM)
inactive: viability, T/C [1] 126% | viability, T/C [2] 134% | viability, T/C [3] 157% | viability, T/C [4] 163% | viability, T/C [5] 165% | viability, T/C [6] 64% | viability, T/C [7] 119% | viability, T/C [8] 137% | viability, T/C [9] 111% | viability, T/C [10] 92.1% | viability, T/C [11] 59.8% | viability, T/C [12] 25.2%

COc1cccc2c1C(=O)c1c(O)c3c(c(O)c1C2=O)CC(O)(C(=O)CO)CC3OC1CC(N)C(O)C(C)O1 (stereo unspecified) + CN1CCN(c2cc(C(=O)Nc3cc4cc(-c5cnn(C)c5)ccc4cn3)ccn2)CC1
active: viability, T/C [4] 4.76% | viability, T/C [5] 0.5% | viability, T/C [6] 4.61% | viability, T/C [10] 1.67% | viability, T/C [11] 0.35% | viability, T/C [12] 7.75% | viability, T/C [13] 1.3% | viability, T/C [14] 1.49% | viability, T/C [15] 0.27% | viability, T/C [16] 0.21% | viability, T/C [17] 1.68% | viability, T/C [18] 8.73% | viability, T/C [19] 0.12% | viability, T/C [20] 1.01% | viability, T/C [21] 0.13% | viability, T/C [22] 0.11% | viability, T/C [23] 2.81% | viability, T/C [24] 6.86% | viability, T/C [25] 0.14% | viability, T/C [26] 0.96% | viability, T/C [27] 1.03% | viability, T/C [28] 0.15% | viability, T/C [29] 0.83% | viability, T/C [30] 7.28% | viability, T/C [31] 0.46% | viability, T/C [32] 1.26% | viability, T/C [33] 0.8% | viability, T/C [34] 0.22% | viability, T/C [35] 2.33% | viability, T/C [36] 7.23%
91.3 nM: IC50 (second compound 0.0316 µM)
< 31.6 nM: IC50 (second compound 0.1 µM) | IC50 (second compound 0.316 µM) | IC50 (second compound 1 µM) | IC50 (second compound 3.16 µM) | IC50 (second compound 10 µM)
inactive: viability, T/C [1] 100% | viability, T/C [2] 38.9% | viability, T/C [3] 33.2% | viability, T/C [7] 44.3% | viability, T/C [8] 35.4% | viability, T/C [9] 21.1%
